Consider 1 compound from patent publication US20090286722A1 (priority 2005, published 2009).

One series addresses dipeptidyl peptidase IV (Sus scrofa, UniProt P22411). Description: DPP IV degradation, % intact peptide by HPLC. The series is classed as in vitro ADME, porcine. The note with it: pig, purified porcine dipeptidyl peptidase IV (DPP IV), 37° C., pH 7.8. The protocol: (§1) HPLC peak area data were used to calculate the percentage intact peptide remaining at the various time points during the incubation.

The target of series [1] is purified porcine dipeptidyl peptidase IV (Sus scrofa, UniProt P22411). The series can be described thus: DPP IV degradation, % intact peptide by HPLC. It counts as in vitro ADME. As to conditions: 37° C., pH 7.8. The protocol:
as §1

A further series concerns the target T1, human GIP receptor (Homo sapiens, UniProt P48546).
T1 construct: expressed in transfected cells; host or cells: Chinese hamster lung (CHL) fibroblasts
T1 sequence (P48546 22-466): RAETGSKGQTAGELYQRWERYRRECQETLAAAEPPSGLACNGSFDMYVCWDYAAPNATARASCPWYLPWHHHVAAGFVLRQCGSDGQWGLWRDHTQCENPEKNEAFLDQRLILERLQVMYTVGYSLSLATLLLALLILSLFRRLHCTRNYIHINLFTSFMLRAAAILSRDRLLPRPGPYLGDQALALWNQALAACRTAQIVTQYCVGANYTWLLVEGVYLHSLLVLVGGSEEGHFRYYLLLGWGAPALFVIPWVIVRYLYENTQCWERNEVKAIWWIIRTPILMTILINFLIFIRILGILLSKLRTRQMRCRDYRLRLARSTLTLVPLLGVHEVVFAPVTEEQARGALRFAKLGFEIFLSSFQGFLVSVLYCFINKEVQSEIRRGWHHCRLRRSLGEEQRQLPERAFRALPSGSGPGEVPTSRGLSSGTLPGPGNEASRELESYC
Description: Intracellular cAMP production in GIP-receptor transfected CHL cells. The series is classed as cell-based. As for the experimental part:
The cells were then incubated at 37° C. for 6 hours in 1 ml DMEM, supplemented with 0.5% (w/v) BSA and subsequently washed twice with HBS buffer (Hanks Buffered Saline solution). […] The medium was subsequently removed and the cells lysed with 1 ml of 5% trichloroacetic acid containing 0.1 mM unlabelled cAMP and 0.1 mM unlabelled ATP. The intracellular tritiated cAMP was then separated on Dowex and alumina exchange resins (Life Science Research, Larne, UK).

A further series concerns D3 mouse ES cell line. Description: Differentiation of D3 mouse ES cells to beta cell phenotype, insulin release and insulin/C-peptide content. The series is classed as cell-based. The protocol:
The D3 mouse ES cell line was routinely cultured on tissue culture plastic coated with 0.1% (w/v) gelatine in DMEM (25 mM glucose) containing 15% foetal bovine serum (FBS), 2 mM glutamine, 50 U/ml penicillin/streptomycin, non-essential amino acids, 0.1 mM β-mercaptoethanol, and 1000 U/ml LIF (leukaemia inhibitory factor). Medium was changed daily and cultures were passaged every 2 days onto fresh geletin-coated plates at a split ratio of 1:5. The cells were passaged by washing the cultures with phosphate-buffer saline and then detached from the plate with a trypsin (2.5 g/L)-EDTA (1 mM) solution. Prior to seeding into new flasks the ES cells were dissociated to single cells suspensions by repeated pipetting.
For differentiation of D3 mouse ES cells, an established protocol was used (Lumelsky, N. et al., 2001, Science 292(5520):1389-94). Briefly, LIF was removed from the culture medium, EBs (embryonic bodies) were then formed by growing the cells as non-adherent clusters. For the selection of nestin positive precursor cells, medium was changed to serum free ITSFn medium and for expanding these progenitors, cells were incubated in N2 serum free medium for 7 days (stage 4) and then differentiated into insulin-containing cell clusters by incubation in N2 serum free medium without bFGF, supplemented with 10 mM nicotinamide for 7 days (stage 5) (control protocol). […] The differentiated cells were harvested at the end of stage 4 and 5 and samples were seeded onto 24 well plates for insulin and C-peptide studies. Insulin release from differentiated cells from stages 4 and 5 were determined using cell monolayers. The cells were harvested with the aid of trypsin/EDTA (Gibco), seeded into 24-multiwell plates (Nunc, Rosklide, Denmark) at a density of 0.1×10^6 cells per well, and allowed to attach overnight.
Prior to the acute test, cells were washed three times and preincubated for 40 minutes at 37° C. in a 1.0 ml Krebs Ringer bicarbonate buffer (115 mM NaCl, 4.7 mM KCl, 1.28 mM CaCl2, 1.2 mM KH2PO4, 1.2 mM MgSO4, 10 mM NaHCO3, 5 g/l bovine serum albumin, pH 7.4) supplemented with 1.1 mM glucose. Test incubations were performed for 20 minutes at 37° C. using the same buffer supplemented with 5.6 mM glucose in the absence (control) and presence of various test agents as indicated in the Figures. After incubation, aliquots of buffer were removed and stored at −20° C. for insulin radioimmunoassay. For assessment of cellular hormone contents, the buffer was completely removed and […] of acid-ethanol solution (1.5% (v/v) HCl, 75% (v/v) ethanol, 23.5% (v/v) H2O) was added. The cells were disrupted with the aid of a pasture pipette and incubated overnight at 4° C. prior to centrifugation (900 rpm) and stored at −20° C.

In a further series the test system is ob/ob mice. The series can be described thus: Acute glucose lowering and insulin release, peptide given i.p. with glucose to 18 hour fasted ob/ob mice.
Setting [2] is: culture media supplemented with 1×10^-6 M peptide, Stage 4.
[3] abbreviates: culture media supplemented with 1×10^-6 M peptide, Stage 5.

Chain of dipeptidyl peptidase IV (P22411 whole entry): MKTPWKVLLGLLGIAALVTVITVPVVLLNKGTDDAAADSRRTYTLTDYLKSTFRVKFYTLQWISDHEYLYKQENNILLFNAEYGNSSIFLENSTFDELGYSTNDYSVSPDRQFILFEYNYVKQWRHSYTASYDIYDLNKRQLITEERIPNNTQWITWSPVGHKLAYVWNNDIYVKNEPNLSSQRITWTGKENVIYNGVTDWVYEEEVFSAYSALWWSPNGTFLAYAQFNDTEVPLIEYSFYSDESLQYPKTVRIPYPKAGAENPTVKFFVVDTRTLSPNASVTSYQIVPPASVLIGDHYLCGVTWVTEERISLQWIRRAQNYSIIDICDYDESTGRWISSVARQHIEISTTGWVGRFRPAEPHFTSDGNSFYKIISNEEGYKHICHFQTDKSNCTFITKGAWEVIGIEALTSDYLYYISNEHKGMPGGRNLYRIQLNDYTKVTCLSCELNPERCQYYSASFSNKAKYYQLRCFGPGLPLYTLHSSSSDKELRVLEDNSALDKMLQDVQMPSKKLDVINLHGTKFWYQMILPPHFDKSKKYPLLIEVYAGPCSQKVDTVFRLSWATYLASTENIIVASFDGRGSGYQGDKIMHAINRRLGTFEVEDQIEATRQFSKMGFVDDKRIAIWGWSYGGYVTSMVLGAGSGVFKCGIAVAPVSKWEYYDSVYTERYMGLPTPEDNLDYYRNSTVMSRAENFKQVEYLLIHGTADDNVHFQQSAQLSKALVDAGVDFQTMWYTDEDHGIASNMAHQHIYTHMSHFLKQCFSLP
Chain of purified porcine dipeptidyl peptidase IV (P22411 whole entry): as above
Description for ob/ob mice: Obese diabetic (ob/ob) mice derived from the colony maintained at Aston University, UK (23) were used at 12-16 weeks of age. […] Drinking water and standard rodent maintenance diet (Trouw Nutrition, Cheshire, UK) were freely available.
Food intake and body weight were recorded daily from 5 days before commencement of the treatment regimes. Plasma glucose and insulin concentrations (10:00 h) were monitored at 2-4 day intervals. […] All acute tests were commenced at 10:00 h. […] Serum samples were taken for determination of glucagon concentrations. All other blood samples were collected from the cut tip of the tail vein of conscious mice into chilled fluoride/heparin coated glucose microcentrifuge tubes (Sarstedt, Nümbrecht, Germany) at the times indicated in the Figures. Blood samples were immediately centrifuged using a Beckman microcentrifuge (Beckman Instruments, Galway, Ireland) for 30 seconds at 13,000×g. The resulting plasma was then aliquoted into fresh tubes and stored at −20° C. prior to glucose and insulin determinations.

Broadly, the share remaining is what is left of the initial amount, in per cent. A word on the EC50: it is the concentration at which the effect is half-maximal. The low end stands for higher potency in that assay, the high end for lower potency in that assay. Consider `CCCCCCCCCCCCCCCC(=O)NCCCC[C@H](NC(=O)[C@H](CC(=O)O)NC(=O)[C@H](CCSC)NC(=O)[C@H](C)NC(=O)[C@@H](NC(=O)[C@H](CO)NC(=O)[C@H](Cc1ccc(O)cc1)NC(=O)[C@H](CC(=O)O)NC(=O)[C@H](CO)NC(=O)[C@@H](NC(=O)[C@H](Cc1ccccc1)NC(=O)[C@@H](NC(=O)CNC(=O)[C@H](CCC(=O)O)NC(=O)[C@H](C)NC(=O)[C@@H](N)Cc1ccc(O)cc1)[C@@H](C)O)[C@@H](C)CC)[C@@H](C)CC)C(=O)N[C@H](C(=O)N[C@@H](Cc1c[nH]cn1)C(=O)N[C@@H](CCC(N)=O)C(=O)N[C@@H](CCC(N)=O)C(=O)N[C@@H](CC(=O)O)C(=O)N[C@@H](Cc1ccccc1)C(=O)N[C@H](C(=O)N[C@@H](CC(N)=O)C(=O)N[C@@H](Cc1c[nH]c2ccccc12)C(=O)N[C@@H](CC(C)C)C(=O)N[C@@H](CC(C)C)C(=O)N[C@@H](C)C(=O)N[C@@H](CCC(N)=O)C(=O)N[C@@H](CCCCN)C(=O)NCC(=O)N[C@@H](CCCCN)C(=O)N[C@@H](CCCCN)C(=O)N[C@@H](CC(N)=O)C(=O)N[C@@H](CC(=O)O)C(=O)N[C@@H](Cc1c[nH]c2ccccc12)C(=O)N[C@@H](CCCCN)C(=O)N[C@@H](Cc1c[nH]cn1)C(=O)N[C@@H](CC(N)=O)C(=O)N[C@H](C(=O)N[C@H](C(=O)N[C@@H](CCC(N)=O)C(=O)O)[C@@H](C)O)[C@@H](C)CC)C(C)C)[C@@H](C)CC` [GIP(LysPAL^16)], for which the share remaining at 2 h, 2 mM at dipeptidyl peptidase IV (2 h incubation with DPP IV (5 mU), read-out: % Intact peptide remaining after time (h) 2) stood at 100%. Further, at dipeptidyl peptidase IV (8 h incubation with DPP IV (5 mU), read-out: % Intact peptide remaining after time (h) 8), the fraction remaining at 8 h, 2 mM turned out to be 100%. The fraction remaining at 24 h, 2 mM at dipeptidyl peptidase IV (24 h incubation with DPP IV (5 mU), read-out: % Intact peptide remaining after time (h) 24) turned out to be 100%. Also, in series [1] (0 h incubation with DPP IV (5 mU)), the “% Intact peptide remaining after time (h) 0” value is listed as 100%. The “% Intact peptide remaining after time (h) 24” value in series [1] (24 h incubation with DPP IV (5 mU)) is recorded as “remained fully intact”. In addition, on human GIP receptor, the EC50 was 2.9 nM. In the series on D3 mouse ES cell line (1×10^-6 M peptide in media, stage 4, 0-22.0 mM glucose), the “glucose-induced insulin release of differentiated stage 4 cells, modified versus control protocol” value is “significantly higher”. Moreover, the “response of differentiated stage 5 cells to glucose” value in the series on D3 mouse ES cell line (1×10^-6 M peptide in media, stage 5) is “appear not respond to glucose”. For the same compound, the “increase in C-peptide content compared to control, stage 4” value in the series on D3 mouse ES cell line (1×10^-6 M peptide, stage 4) stood at 1.5 fold. Moreover, the “increase in C-peptide content compared to control, stage 5” value in the series with D3 mouse ES cell line (1×10^-6 M peptide, stage 5) turned out to be 1.3 fold. Further, in the series on D3 mouse ES cell line (setting [2]), the “C-Peptide content of differentiated D3 cluster cells, Stage 4” value is on record as 124.5 ± 3.13 pmol/mg protein/20 mins and the “Insulin content of differentiated D3 cluster cells, Stage 4” value is 9154 ± 291.1 pmol/mg protein/20 mins. For the same compound, in the series on D3 mouse ES cell line (setting [3]), the “C-Peptide content of differentiated D3 cluster cells, Stage 5” value was 121.9 ± 3.43 pmol/mg protein/20 mins and the “Insulin content of differentiated D3 cluster cells, Stage 5” value came out at 8532 ± 626.5 pmol/mg protein/20 mins. The “plasma glucose concentrations and AUC (0-60 min) compared to glucose alone” value with ob/ob mice (25 nmol/kg i.p. with glucose 18 mmol/kg) is “significantly reduced”. For the same compound, the “overall enhancement of insulin release over native GIP” value in the series on ob/ob mice (25 nmol/kg i.p. with glucose, insulin AUC 0-60 min) was found to be 2.4 fold.
